Biological target: Heat shock 70 kDa protein 1A (HSP72/HSPA1A) (Homo sapiens) (UniProt P0DMV8)
Assay: Covalent inhibition of HSP72-NBD (unknown origin) nucleotide-derived FP probe displacement based by fluorescence polarization assay

Heat shock 70 kDa protein 1A (HSP72/HSPA1A) (Homo sapiens), sequence (P0DMV8 whole entry, looked up): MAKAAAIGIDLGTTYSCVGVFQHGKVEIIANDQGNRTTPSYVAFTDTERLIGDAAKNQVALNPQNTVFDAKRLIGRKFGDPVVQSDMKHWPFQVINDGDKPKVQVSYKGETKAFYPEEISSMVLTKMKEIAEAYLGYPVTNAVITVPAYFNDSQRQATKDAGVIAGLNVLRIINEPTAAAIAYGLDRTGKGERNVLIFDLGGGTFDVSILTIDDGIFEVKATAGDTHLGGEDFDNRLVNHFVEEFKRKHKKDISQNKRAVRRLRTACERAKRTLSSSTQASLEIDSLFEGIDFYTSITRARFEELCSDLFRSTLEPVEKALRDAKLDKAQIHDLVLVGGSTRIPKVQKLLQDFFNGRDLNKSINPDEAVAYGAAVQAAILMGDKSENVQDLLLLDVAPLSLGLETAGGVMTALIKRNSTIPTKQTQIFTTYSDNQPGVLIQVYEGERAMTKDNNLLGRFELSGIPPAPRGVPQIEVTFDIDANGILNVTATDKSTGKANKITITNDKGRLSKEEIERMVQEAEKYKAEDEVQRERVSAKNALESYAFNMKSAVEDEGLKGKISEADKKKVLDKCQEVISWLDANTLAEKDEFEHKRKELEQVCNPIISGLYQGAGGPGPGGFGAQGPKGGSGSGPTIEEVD

Q: `N#Cc1ccc(COC[C@H]2O[C@@H](n3c(NCc4ccc(Cl)c(Cl)c4)nc4c(N)ncnc43)[C@H](O)[C@@H]2O)cc1` [adenosine-derived inhibitor (Grp78), 13] was tested. Which Ki did it give?
A: < 200 nM
